Converted amounts (≈) assume the structure as drawn. The source made the active and inactive calls. No cut-off for these calls is given here.
Experiments:
PC-12 [1] = experiment: Inhibition of GFP tagged-exon-1 fragment of huntingtin 74Q mutant (unknown origin) expressed in rat PC12 cells assessed as protection against doxycycline-induced cell death after 72 hrs by LDH release assay; format: cell-based; conditions: Homo sapiens
Cytochrome P450 3A4 [2] = target: T1, Cytochrome P450 3A4 (Homo sapiens, UniProt P08684); experiment: Inhibition of CYP3A4 (unknown origin) using nifedipine as substrate; format: ADME
[3] = Intrinsic clearance in mouse liver microsomes at 1 uM in presence of NADPH; format: ADME, Microsome; conditions: read-out: CLH
Mus musculus [4] = experiment: Antihuntington's disease activity in R6/2 transgenic mouse assessed as decrease in body weight at 10 to 30 mg/kg, po qd; format: functional, organism-based
Cytochrome P450 3A4 [5] = target: T1, Cytochrome P450 3A4; experiment: Inhibition of CYP3A4 (unknown origin) using testosterone as substrate; format: ADME
Salmonella typhimurium = experiment: Genotoxicity in Salmonella typhimurium by Ames test; format: toxicity, organism-based; conditions: salmonella enterica subsp. enterica serovar typhimurium
[6] = Stability of the compound at pH 3 to 7.4 assessed as dehydration; format: physicochemical; conditions: buffer
[7] = Inhibition of full-length huntingtin Q138 mutant (unknown origin) expressed in human T-RexTM-293 cells co-expressing CRE-Luc assessed as decrease of CREB-mediated transcription after 72 hrs by luciferase reporter gene based luminescence assay; format: cell-based; conditions: HEK293, 72 h
[8] = Cytotoxicity in Sprague-Dawley rat striatal neurons; format: cell-based; conditions: neuron
MDCK = experiment: Efflux ratio of permeability […] in MDCK cells expressing MDR1 after 120 mins; format: ADME, cell-based, Canis lupus familiaris; conditions: dog, 2 h
Mus musculus [9] = experiment: Toxicity in R6/2 transgenic mouse assessed as motor impairment at 1 to 30 mg/kg, po qd; format: organism-based; set-up: dose 1-30 mg/kg, route oral; conditions: in vivo
Cytochrome P450 2C19 = Cytochrome P450 2C19 (Homo sapiens, UniProt P33261); experiment: Inhibition of CYP2C19 (unknown origin); format: ADME
[10] = target: Huntingtin (Rattus norvegicus) (UniProt P51111); experiment: Inhibition of wild type huntingtin 171-18Q-mediated cell death in Sprague-Dawley rat striatal neurons at 1 to 30 uM by NeuN-positive cell counting assay
Cytochrome P450 2C9 = Cytochrome P450 2C9 (Homo sapiens, UniProt P11712); experiment: Inhibition of CYP2C9 (unknown origin); format: ADME
Rattus norvegicus = species: Rattus norvegicus; experiment: Inhibition of huntingtin 171-82Q mutant-mediated cell death in Sprague-Dawley rat striatal neurons at 10 to 30 uM by NeuN-positive cell counting assay
Mus musculus [11] = experiment: Toxicity in R6/2 transgenic mouse assessed as mortality at 1 to 30 mg/kg, po qd; format: organism-based; set-up: dose 1-30 mg/kg, route oral; conditions: in vivo
Cytochrome P450 1A2 = target: T2, Cytochrome P450 1A2 (Homo sapiens, UniProt P05177); experiment: Inhibition of CYP1A2 (unknown origin); format: ADME
T2 sequence (P05177 whole entry): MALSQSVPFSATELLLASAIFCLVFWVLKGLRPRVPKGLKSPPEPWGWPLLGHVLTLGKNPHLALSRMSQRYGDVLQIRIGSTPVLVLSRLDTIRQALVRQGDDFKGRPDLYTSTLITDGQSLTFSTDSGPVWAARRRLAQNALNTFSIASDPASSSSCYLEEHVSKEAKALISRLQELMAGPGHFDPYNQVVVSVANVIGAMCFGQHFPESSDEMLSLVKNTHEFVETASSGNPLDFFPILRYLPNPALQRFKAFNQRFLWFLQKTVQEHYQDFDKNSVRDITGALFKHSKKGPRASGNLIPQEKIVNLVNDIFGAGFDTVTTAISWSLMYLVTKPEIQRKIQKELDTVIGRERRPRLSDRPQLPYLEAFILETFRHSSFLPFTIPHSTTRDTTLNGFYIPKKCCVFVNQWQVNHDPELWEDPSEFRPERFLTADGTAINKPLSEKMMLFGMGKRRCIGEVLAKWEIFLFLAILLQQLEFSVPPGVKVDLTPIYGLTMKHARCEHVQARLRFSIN

[12] = Permeability of the compound from apical to basolateral side of MDCK cells expressing MDR1 after 120 mins; format: ADME, cell-based, Canis lupus familiaris; conditions: dog, read-out: permeability
Mus musculus [13] = experiment: Antihuntington's disease activity in R6/2 transgenic mouse assessed as decrease of cerebral ventricles size at 3 to 30 mg/kg, po qd measured after 8 weeks; format: functional, organism-based
[14] = target: Voltage-gated inwardly rectifying potassium channel KCNH2 (Homo sapiens, UniProt Q12809); experiment: Inhibition of human ERG up to 100 uM
PC-12 [15] = experiment: Cytoprotective activity in rat PC12 cells after 72 hrs by LDH release assay; format: ADME, cell-based; conditions: pc-12, 72 h
[16] = Kinetic solubility of the compound at pH 7.4; format: physicochemical; conditions: buffer, read-out: Kinetic_solubility
Mus musculus [17] = experiment: Antihuntington's disease activity in R6/2 transgenic mouse assessed as prevention of ventricular volume enlargment at 3 to 30 mg/kg, po qd measured after 8 weeks; format: functional, organism-based
Mus musculus [18] = experiment: Ex vivo antihuntington's disease activity in R6/2 transgenic mouse assessed as decrease of cerebral ventricles size at 3 to 30 mg/kg, po qd measured after 8 weeks by MRI analysis; format: functional, organism-based
HEK293 = experiment: Inhibition of full-length huntingtin Q138 mutant (unknown origin) expressed in human T-RexTM-293 cells co-expressing CRE-Luc assessed as decrease of CREB-mediated transcription after 72 hrs by luciferase reporter gene based luminescence assay relative to control; format: cell-based
[19] = Ratio of drug level in brain to plasma in CD1 mouse at 5 mg/kg, po and iv; format: ADME, organism-based; set-up: dose 5 mg/kg, route oral; conditions: read-out: BPR
Cytochrome P450 2D6 = Cytochrome P450 2D6 (Homo sapiens, UniProt P10635); experiment: Inhibition of CYP2D6 (unknown origin); format: ADME
[20] = Intrinsic clearance in human liver microsomes at 1 uM in presence of NADPH; format: ADME, Microsome; conditions: read-out: CLH

T1 sequence (P08684 whole entry): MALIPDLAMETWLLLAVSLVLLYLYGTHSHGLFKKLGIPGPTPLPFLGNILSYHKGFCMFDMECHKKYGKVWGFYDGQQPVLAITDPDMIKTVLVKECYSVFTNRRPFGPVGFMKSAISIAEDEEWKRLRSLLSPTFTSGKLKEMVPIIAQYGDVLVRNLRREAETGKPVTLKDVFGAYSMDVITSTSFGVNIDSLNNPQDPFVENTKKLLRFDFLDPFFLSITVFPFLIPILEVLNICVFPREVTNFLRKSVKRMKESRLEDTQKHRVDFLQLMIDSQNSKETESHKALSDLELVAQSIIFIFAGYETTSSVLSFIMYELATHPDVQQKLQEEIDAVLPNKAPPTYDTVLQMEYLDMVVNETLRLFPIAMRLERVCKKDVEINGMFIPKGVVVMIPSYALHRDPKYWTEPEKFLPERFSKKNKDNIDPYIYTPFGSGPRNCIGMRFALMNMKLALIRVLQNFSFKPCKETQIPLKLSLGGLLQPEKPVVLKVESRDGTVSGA
Cytochrome P450 2C9, sequence (P11712 whole entry): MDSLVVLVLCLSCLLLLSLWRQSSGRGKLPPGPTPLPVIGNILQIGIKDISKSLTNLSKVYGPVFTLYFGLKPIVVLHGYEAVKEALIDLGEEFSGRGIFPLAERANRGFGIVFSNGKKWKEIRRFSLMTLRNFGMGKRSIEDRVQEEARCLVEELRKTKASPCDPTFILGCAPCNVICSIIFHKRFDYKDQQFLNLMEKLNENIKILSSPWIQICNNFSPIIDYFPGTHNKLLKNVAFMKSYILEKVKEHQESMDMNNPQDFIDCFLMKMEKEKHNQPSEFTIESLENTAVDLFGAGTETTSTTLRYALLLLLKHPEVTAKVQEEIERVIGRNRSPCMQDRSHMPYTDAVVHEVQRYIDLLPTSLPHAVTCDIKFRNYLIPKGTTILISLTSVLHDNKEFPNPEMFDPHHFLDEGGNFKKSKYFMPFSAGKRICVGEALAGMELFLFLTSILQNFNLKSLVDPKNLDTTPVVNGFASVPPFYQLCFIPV
Cytochrome P450 2D6, sequence (P10635 whole entry): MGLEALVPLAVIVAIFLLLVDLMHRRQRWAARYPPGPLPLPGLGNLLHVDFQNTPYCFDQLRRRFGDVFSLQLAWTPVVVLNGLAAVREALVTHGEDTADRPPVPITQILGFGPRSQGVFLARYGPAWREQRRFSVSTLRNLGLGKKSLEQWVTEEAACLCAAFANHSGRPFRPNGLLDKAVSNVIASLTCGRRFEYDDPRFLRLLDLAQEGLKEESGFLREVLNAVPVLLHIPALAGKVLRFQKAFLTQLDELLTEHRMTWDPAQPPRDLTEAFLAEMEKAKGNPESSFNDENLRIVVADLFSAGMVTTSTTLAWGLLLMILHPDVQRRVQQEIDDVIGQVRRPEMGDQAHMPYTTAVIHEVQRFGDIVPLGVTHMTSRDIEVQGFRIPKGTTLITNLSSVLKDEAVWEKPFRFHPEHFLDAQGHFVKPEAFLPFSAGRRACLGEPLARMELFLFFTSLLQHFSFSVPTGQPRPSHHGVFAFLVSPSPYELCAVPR
Voltage-gated inwardly rectifying potassium channel KCNH2, sequence (Q12809 whole entry): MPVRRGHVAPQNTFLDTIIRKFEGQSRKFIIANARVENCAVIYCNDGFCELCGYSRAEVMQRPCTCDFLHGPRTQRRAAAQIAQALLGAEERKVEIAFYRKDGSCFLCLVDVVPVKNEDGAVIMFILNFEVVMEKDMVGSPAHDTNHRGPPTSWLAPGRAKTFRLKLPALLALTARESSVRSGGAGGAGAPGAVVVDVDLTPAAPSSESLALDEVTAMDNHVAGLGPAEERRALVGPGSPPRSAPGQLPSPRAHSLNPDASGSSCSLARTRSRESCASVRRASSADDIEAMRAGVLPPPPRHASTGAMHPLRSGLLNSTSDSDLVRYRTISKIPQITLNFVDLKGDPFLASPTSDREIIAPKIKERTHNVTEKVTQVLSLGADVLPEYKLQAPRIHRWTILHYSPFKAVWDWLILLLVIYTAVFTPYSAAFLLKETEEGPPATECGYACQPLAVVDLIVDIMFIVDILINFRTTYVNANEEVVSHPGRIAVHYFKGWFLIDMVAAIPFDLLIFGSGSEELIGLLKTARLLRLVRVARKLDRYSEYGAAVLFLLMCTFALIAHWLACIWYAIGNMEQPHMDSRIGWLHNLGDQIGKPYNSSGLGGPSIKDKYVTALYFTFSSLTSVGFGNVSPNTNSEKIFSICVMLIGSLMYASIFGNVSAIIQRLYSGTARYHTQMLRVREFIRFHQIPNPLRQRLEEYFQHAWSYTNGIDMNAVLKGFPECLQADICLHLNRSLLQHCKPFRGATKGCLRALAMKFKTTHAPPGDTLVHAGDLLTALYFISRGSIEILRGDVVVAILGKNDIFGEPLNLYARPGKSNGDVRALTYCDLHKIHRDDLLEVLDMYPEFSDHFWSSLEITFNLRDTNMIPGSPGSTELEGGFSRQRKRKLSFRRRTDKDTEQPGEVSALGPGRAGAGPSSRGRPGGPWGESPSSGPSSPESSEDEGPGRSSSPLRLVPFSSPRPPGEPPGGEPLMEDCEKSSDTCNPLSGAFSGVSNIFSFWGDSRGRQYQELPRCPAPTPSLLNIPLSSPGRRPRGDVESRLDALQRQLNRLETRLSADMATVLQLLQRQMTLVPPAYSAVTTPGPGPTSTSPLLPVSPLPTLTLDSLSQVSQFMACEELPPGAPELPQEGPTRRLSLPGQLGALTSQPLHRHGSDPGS
Cytochrome P450 2C19, sequence (P33261 whole entry): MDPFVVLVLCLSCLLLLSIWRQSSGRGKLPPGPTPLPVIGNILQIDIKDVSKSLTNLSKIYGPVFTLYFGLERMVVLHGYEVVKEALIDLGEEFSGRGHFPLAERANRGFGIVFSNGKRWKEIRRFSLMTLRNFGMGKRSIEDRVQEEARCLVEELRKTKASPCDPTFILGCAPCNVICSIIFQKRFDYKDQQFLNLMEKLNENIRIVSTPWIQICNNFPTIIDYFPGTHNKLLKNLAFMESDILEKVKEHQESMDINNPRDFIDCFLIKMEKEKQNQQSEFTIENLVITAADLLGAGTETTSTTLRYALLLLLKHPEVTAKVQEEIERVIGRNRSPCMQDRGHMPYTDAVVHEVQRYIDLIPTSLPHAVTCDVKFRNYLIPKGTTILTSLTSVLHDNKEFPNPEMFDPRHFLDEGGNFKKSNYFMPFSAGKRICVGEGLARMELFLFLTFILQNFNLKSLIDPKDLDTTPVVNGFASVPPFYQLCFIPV

**Q.** What does the source list for `Nc1nc(C(=O)N2N=C3CCCC[C@@H]3[C@@]2(O)C(F)(F)F)cs1` (racemic)?
**A.** inhibition (PC-12 [1]): Active; INH (Cytochrome P450 3A4 [2]): > 30 µM; microsomal CLint at 1 µM [3]: 27.6 µL/min/mg; Activity (Mus musculus [4]): Active; INH (Cytochrome P450 3A4 [5]): > 30 µM; Activity (Salmonella typhimurium): Non-toxic; Stability [6]: Stable; EC50 [7]: 1800 nM; Activity [8]: Non-toxic; Ratio (MDCK): 1.1; Activity (Mus musculus [9]): Non-toxic; INH (Cytochrome P450 2C19): 24.4 µM; inhibition [10]: Active; INH (Cytochrome P450 2C9): > 30 µM; inhibition (Rattus norvegicus): Active; Activity (Mus musculus [11]): Non-toxic; INH (Cytochrome P450 1A2): > 30 µM; Papp A→B at 2 h [12]: 31 ×10⁻⁶ cm/s; Activity (Mus musculus [13]): Active; inhibition (INH) [14]: Not Active; Activity (PC-12 [15]): Non-toxic; solubility kinetic [16]: 96 µM (≈ 32.1 µg/mL); Activity (Mus musculus [17]): Active; Activity (Mus musculus [18]): Active; Emax (HEK293): 44%; Kp [19]: 0.34; INH (Cytochrome P450 2D6): > 30 µM; microsomal CLint at 1 µM [20]: 13.6 µL/min/mg

From ChEMBL document CHEMBL2439992, “Fused 3-Hydroxy-3-trifluoromethylpyrazoles Inhibit Mutant Huntingtin Toxicity” (ACS Med Chem Lett, 2013)
